One data set concerns PRV-1 gene expression. The note with it: in vivo; cited from earlier work.
The subject of a further data set is PV. Particulars: patients with PV; cited from earlier work.
The conditions of data set [1]: patients on cytostatic therapy; cited from earlier work.
For data set [2], the system named is JAK2^V617F positive Polycythemia Vera. The data set can be described thus: Phase II study of ITF2357 in combination with N-hydroxyurea in Polycythemia Vera. It counts as in vivo, human. The text has this:
A multicentre, randomized, open-label, phase II study testing Givinostat-Hydrochloride-Monohydrate (ITF2357) in combination with N-hydroxyurea (HU) in Polycythemia Vera (PV).
Population in the study: 44 patients of both genders with an established diagnosis of JAK2^V617F positive PV according to the revised WHO criteria, in need of cytoreductive therapy, non-responders to therapeutic doses of HU monotherapy for at least 3 months.
Duration of the treatment: up to a maximum of 24 weeks of continual administration.
Primary objective: To evaluate the efficacy of ITF2357 in combination with HU in patients with JAK2^V617F positive Polycythemia Vera non-responders to therapeutic doses of HU in monotherapy.
Results: Patients response has been evaluated according to the european criteria [as reported in G. Barosi et al. Blood 113, 4829-4833 (2009)].

Data set [3] has as its system stem cells obtained from PV or ET patients. The note with it: sub-micromolar concentrations; cited from earlier work.

Regarding IFN-α, the PRV-1 expression entry in the data set with PRV-1 gene expression is on record as “significantly reduces”. Further, the “efficacy of therapy compared with N-hydroxyurea treatment” value with PV is “more effective”.
In the case of `NC(=O)NO` [N-hydroxyurea, reference compound], the PRV-1 gene expression entry in the data set with PRV-1 gene expression is “increase”. Further, in data set [1], the “side effects observed (drug tolerance)” value is “leg ulcers and buccal aphthous ulcers”.
As for `O=C(CCBr)N1CCN(C(=O)CCBr)CC1` [Pipobroman], the “side effects observed (drug tolerance)” value in data set [1] is “gastric pain and diarrhea”.
Regarding `CCN(CC)Cc1ccc2cc(COC(=O)Nc3ccc(C(=O)NO)cc3)ccc2c1.Cl` [ITF2357, Diethyl-[6-(4-hydroxycarbamoyl-phenylcarbamoyloxymethyl)-naphthalen-2-ylmethyl]-ammonium chloride], in data set [2] (ITF2357 50 mg/day combined with N-hydroxyurea 500 mg/day, preliminary data, 6 patients refractory to previous HU monotherapy), the “control of the clinico-hematologic parameters (response by european criteria)” value is listed as “significant control of the clinico-hematologic parameters”. Moreover, the “amelioration of the clinical parameters” value in data set [2] (in combination with N-hydroxyurea, compared to HU monotherapy, patients with myeloproliferative syndromes, preferably polycythemia vera) is recorded as “significant amelioration of the clinical parameters”. For the same compound, the “clonogenic activity of stem cells” value in data set [3] is on record as “inhibit the clonogenic activity”.

(Values after patent US8217079B2 (priority 2010, dated 2012).)
